Reference: patent US20160355465A1, “NOVEL MODIFIED CURCUMINS AND THEIR USES” (THE RESEARCH FOUNDATION OF STATE UNIVERSITY OF NEW YORK, priority 2011, published 2016)

Tests used:
[1] = target: T1, MMP-1 (Homo sapiens, UniProt P03956); test: fluorimetric assay of MMP activity; type: biochemical; conditions: synthetic fluorescent peptide substrate Mca-Lys-Pro-Leu-Gly-Leu-Dpa-Ala-Arg-NH2
T1 sequence (P03956 100-469): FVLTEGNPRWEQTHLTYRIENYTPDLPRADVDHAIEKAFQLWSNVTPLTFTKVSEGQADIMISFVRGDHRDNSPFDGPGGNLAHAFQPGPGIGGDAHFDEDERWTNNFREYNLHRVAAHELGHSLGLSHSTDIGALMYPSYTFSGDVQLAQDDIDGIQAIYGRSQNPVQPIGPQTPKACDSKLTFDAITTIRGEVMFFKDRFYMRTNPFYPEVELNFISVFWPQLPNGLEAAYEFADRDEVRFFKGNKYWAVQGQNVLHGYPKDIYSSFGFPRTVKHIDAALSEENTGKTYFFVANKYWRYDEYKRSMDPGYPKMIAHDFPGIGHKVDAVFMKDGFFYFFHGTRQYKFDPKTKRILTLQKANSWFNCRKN

[2] = tested on: MMP-2 (72 kDa gelatinase); test: gelatin zymography of skin wound extracts; type: in vivo, rat; conditions: diabetic rats, 1% topical, day 7
Method: (§1) The following five experimental groups (n=3 rats per group) were established: Non-diabetic control rats (NDC) treated by daily application of white petrolatum jelly (“vehicle”) for 7 days, diabetic rats (D group) treated daily with vehicle alone; diabetics treated by daily topical application of either a 1% (D+1%) or a 3% (D+3%) suspension of Compound 4 in the vehicle; and diabetics treated systemically by daily oral intubation of a 1 ml suspension of Compound 4 (in carboxymethylcellulose) at a dose of 30 mg/kg over the 7-day treatment protocol (D+30 mg/kg). At the end of this time period, the circular wounds were clinically assessed by measuring diameter of the wound in millimeters, blood samples were collected, the rats were sacrificed, and skin samples collected for histological/histochemical, and biochemical assessment as described below. • 1) On day 7 after inducing wound healing, the animals were anesthetized and blood samples collected for blood glucose (one Touch Ultra Glucometer; Johnson & Johnson, New Brunswick, N.J.) and Hemoglobin A1c (A1c Now+; Bayer Health Care, Sunnyvale, Calif.) measurements. • 2) Photographs were taken for clinical observations to assess wound closure. […]

[3] = tested on: MMP-9 (92 kDa gelatinase); test: gelatin zymography of skin wound extracts; type: in vivo, rat; conditions: diabetic rats, all three treatments (1%, 3% topical, oral 30 mg/kg), day 7
Method: as §1

[4] = tested on: peritoneal macrophages; test: macrophage accumulation in peritoneal exudates of diabetic rats; type: in vivo, rat; conditions: oral 30 mg/kg daily, 21 days
Method: Adult male Sprague-Dawley rats (body weight 300-350 g) were injected through the tail vein with either 0.9% saline (non-diabetic control) or with the same solution containing streptozotocin (70 mg/kg body weight) to induce diabetes. Non-diabetic rats served as normal controls. The diabetic rats were distributed into 2 experimental groups (3 rats per group). Urine glucose levels were measured weekly with Tes-Tape (Eli Lilly Inc.). One group of rats was treated by oral gavage of Compound 4 (30 mg/kg body weight) daily for 21 days; the Compound 4 was suspended in 2% carboxymethyl cellulose and polytron/homogenized. The normal & diabetic vehicle-treated (control) groups were oral gavaged with vehicle alone daily.
Rat peritoneal macrophages were harvested with 10 ml RPMI 4 days after intraperitoneal injection of 10 ml of thioglycolate (3% wt/vol). Macrophages were then purified by density gradient centrifugation (lymphoprep) and cell numbers were counted in a hemocytometer. The cells were then tested in a cell migration assay (Cell BioLabs, Inc, CytoSelect 96-well with 5 um fluorometric format) using conditioned medium containing inflammatory mediators including MCP-1 from LPS-macrophages as a chemoattractant. The macrophages from different groups of rats were also plated onto 24 well-plates with and without p.g.LPS challenge for 24 hours in 37° C., 5% CO2. […]

[5] = tested on: skin wounds; test: healing of 6 mm skin wounds in streptozotocin-diabetic rats, clinical wound diameter; type: in vivo, rat; conditions: 7 days
Method: Three weeks after inducing diabetes, the back skin of all the rats was shaved and a series of 6 standard wounds per rat, each 6 mm in diameter, was made using a surgical trephine.
A finely-ground sample (0.1 g) of Compound 4 [4-(phenylaminocarbonyl)-1,7-bis(4-hydroxyphenyl)hepta-1e,6e-diene-3,5-dione] was added to petrolatum jelly (9 g) and the mixture was homogenized for 15 minutes at 25° C., then allowed to settle for 5 minutes. This procedure was repeated nine times, producing a homogeneous product having a cream-like consistency. This was then used in topical application to wounds.
The following five experimental groups (n=3 rats per group) were established: Non-diabetic control rats (NDC) treated by daily application of white petrolatum jelly (“vehicle”) for 7 days, diabetic rats (D group) treated daily with vehicle alone; diabetics treated by daily topical application of either a 1% (D+1%) or a 3% (D+3%) suspension of Compound 4 in the vehicle; and diabetics treated systemically by daily oral intubation of a 1 ml suspension of Compound 4 (in carboxymethylcellulose) at a dose of 30 mg/kg over the 7-day treatment protocol (D+30 mg/kg). At the end of this time period, the circular wounds were clinically assessed by measuring diameter of the wound in millimeters, blood samples were collected, the rats were sacrificed, and skin samples collected for histological/histochemical, and biochemical assessment as described below. • 1) On day 7 after inducing wound healing, the animals were anesthetized and blood samples collected for blood glucose (one Touch Ultra Glucometer; Johnson & Johnson, New Brunswick, N.J.) and Hemoglobin A1c (A1c Now+; Bayer Health Care, Sunnyvale, Calif.) measurements. • 2) Photographs were taken for clinical observations to assess wound closure. The % reduction of the wound surface was calculated by measuring the diameter (in millimeters) of each wound before and after the treatment protocol. • 3) Wound tissues on day 7 were excised from 3 sites per rat and pooled for biochemical analysis. […]

[6] = blood glucose of the rats of the collagen experiment; type: in vivo, rat; conditions: diabetic rats
[7] = target: MMP-12 (Homo sapiens, UniProt P39900); test: fluorimetric assay of MMP activity; type: biochemical; conditions: synthetic fluorescent peptide substrate Mca-Lys-Pro-Leu-Gly-Leu-Dpa-Ala-Arg-NH2
[8] = tested on: MMPs 1, 2, 3, 7, 8, 9, 12, 13 and 14; test: activity against a battery of MMPs (summary in words); type: biochemical, human
[9] = target: MMP-9 (Homo sapiens, UniProt P14780); test: fluorimetric assay of MMP activity; type: biochemical; conditions: synthetic fluorescent peptide substrate Mca-Lys-Pro-Leu-Gly-Leu-Dpa-Ala-Arg-NH2
MMP-9, sequence (P14780 94-707): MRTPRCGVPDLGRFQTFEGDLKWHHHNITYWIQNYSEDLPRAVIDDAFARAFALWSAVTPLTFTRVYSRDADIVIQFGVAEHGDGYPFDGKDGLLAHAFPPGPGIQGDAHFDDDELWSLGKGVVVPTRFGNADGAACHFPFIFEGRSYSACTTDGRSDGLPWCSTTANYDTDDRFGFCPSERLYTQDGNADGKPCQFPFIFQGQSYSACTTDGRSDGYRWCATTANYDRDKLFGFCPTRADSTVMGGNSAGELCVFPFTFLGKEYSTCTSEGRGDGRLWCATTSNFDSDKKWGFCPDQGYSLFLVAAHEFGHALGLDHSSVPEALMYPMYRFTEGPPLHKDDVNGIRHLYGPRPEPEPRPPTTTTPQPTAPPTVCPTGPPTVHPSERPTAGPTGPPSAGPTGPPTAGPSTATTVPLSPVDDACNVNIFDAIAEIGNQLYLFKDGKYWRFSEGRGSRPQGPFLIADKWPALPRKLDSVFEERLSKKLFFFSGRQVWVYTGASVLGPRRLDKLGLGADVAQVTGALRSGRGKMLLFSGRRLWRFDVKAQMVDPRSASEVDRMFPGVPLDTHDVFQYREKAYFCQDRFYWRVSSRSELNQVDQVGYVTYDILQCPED

MMP-12, sequence (P39900 106-470): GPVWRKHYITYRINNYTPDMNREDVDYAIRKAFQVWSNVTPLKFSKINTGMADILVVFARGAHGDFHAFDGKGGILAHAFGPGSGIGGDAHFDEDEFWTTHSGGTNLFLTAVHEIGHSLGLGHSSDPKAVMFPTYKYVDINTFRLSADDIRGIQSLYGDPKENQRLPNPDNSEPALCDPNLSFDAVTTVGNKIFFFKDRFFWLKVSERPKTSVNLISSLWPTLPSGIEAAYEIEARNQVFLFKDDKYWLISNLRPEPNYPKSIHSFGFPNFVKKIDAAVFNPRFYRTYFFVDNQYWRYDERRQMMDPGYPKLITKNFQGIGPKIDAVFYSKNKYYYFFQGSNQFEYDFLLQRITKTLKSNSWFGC

## O=C(/C=C/c1ccc(O)cc1)C(C(=O)/C=C/c1ccc(O)cc1)C(=O)Nc1ccccc1 [Compound 4, 1,7-Bis(4-hydroxyphenyl)-4-N-phenylaminocarbonylhepta-1E, 6E-dien-3,5-dione]
[1]
  IC50: 69.8 ± 2 µM
[2]
  MMP-2 in skin wounds: does not suppress, and perhaps even enhances
[3]
  level of pro-MMP-9 and activated MMP-9 in skin wounds: attenuated this diabetic effect
[4]
  macrophage accumulation in peritoneal exudates: decreased pathologically excessive macrophage accumulation
[5]; 1% topical in petrolatum jelly, daily, non-diabetic control 30%
  reduction in wound diameter: 35%
[5]; 3% topical, daily
  wound healing (in words): significant increase in wound healing over that of the untreated diabetic control
[5]; systemic, oral 30 mg/kg daily
  wound healing (in words): returned wound healing characteristics to that seen in the non-diabetic control group
[6]; 0.25% topical
  Blood Glucose: 538 mg/dL
[6]; 1% topical
  Blood Glucose: 545 mg/dL
[7]
  IC50: 2 ± 0.4 µM
[8]
  anti-MMP activity (in words): highly active
[9]
  IC50: 8 ± 0.6 µM
